These results are taken from patent US7078222B2, “Microorganism for producing riboflavin and method for producing riboflavin using the same” (CJ Corp., priority 2002, dated 2006).

The test system of test [1] is Bacillus subtilis CJKB0002 (KCCM-10446). The test can be described thus: Evaluation of resistance against DL-β-hydroxynorvaline (growth in DL-β-hydroxynorvaline-containing minimal medium). It counts as cell-based. Details: key to growth of strain: +: growth; −: not growth. As to conditions: for growth of strain: 30° C., 5 days. Here is the method: (§1) In this example, in order to evaluate resistance to DL-β-hydroxynorvaline, the Bacillus subtilis CJKB0002 (KCCM-10446) of Example 1 and the Bacillus subtilis AS5 as the parent strain were cultured in various concentrations of DL-β-hydroxynorvaline-containing media. In detail, respective strains were inoculated onto DL-β-hydroxynorvaline-containing media as shown in Table 1 and cultured at 30° C. for 5 days. In this case, the concentration of DL-β-hydroxynorvaline ranged from 0 to 350 mg/l.

For the next test, the system named is Bacillus subtilis AS5. The description is as above. It counts as cell-based. Set-up: key to growth of strain: +: growth; −: not growth. As to conditions: for growth of strain: 30° C., 5 days. How it is done: as §1

Take `CCC(O)C(N)C(=O)O` (racemic) [DL-β-hydroxynorvaline]: the growth of strain entry is on record as “+” in test [1] (250 mg/l DL-β-hydroxynorvaline); “−” in test [1] (300 mg/l DL-β-hydroxynorvaline); “−” in test [1] (350 mg/l DL-β-hydroxynorvaline); “+” in the test on Bacillus subtilis AS5 (50 mg/l DL-β-hydroxynorvaline); “−” with Bacillus subtilis AS5 (100 mg/l DL-β-hydroxynorvaline); “−” in the test on Bacillus subtilis AS5 (200 mg/l DL-β-hydroxynorvaline). Also, the growth of strain entry in the test with Bacillus subtilis AS5 (250 mg/l DL-β-hydroxynorvaline), in the test on Bacillus subtilis AS5 (300 mg/l DL-β-hydroxynorvaline) and with Bacillus subtilis AS5 (350 mg/l DL-β-hydroxynorvaline) was “−” in each case. In test [1] (CJKB0002 versus AS5), the “enhanced resistance to threonine analogue compared to Bacillus subtilis AS5” value is given as “five times”. The “concentration of DL-β-hydroxynorvaline in which the strain can grow” value in test [1] (mutant CJKB0002) is no more than 250 mg/L. Further, the “concentration of DL-β-hydroxynorvaline in which the strain cannot grow” value with Bacillus subtilis AS5 (parent strain AS5) is on record as “more than 50 mg/l”.
